Assay results reported in US20080200454A1, “CARBON-LINKED TETRAHYDRO-PYRAZOLO-PYRIDINE MODULATORS OF CATHEPSIN S” (priority 2007, published 2008).
Read-outs that look alike come from different tables or passages of the source.

Molecular target: Recombinant human cathepsin S (CatS) (Homo sapiens, UniProt P25774)
Assay: Recombinant human cathepsin S (CatS) inhibition assay, fluorogenic substrate Z-Valine-Valine-Arginine-AMC;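 further: Baculovirus-expressed CatS in pH 5.0 sodium acetate buffer with DTT and NaCl, fluorescence read each minute over 20 min, inhibition derived from rate slope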

Sequence of Recombinant human cathepsin S (CatS) (P25774 115-331): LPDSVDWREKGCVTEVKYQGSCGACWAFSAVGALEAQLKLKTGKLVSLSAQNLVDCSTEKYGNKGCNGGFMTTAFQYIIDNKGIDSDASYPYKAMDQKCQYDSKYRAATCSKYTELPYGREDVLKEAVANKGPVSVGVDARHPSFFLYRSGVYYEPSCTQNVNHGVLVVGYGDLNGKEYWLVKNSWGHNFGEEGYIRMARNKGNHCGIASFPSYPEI

Row | IC50 | Structure (SMILES) | IC50 (CatS IC50)
1 | – | CS(=O)(=O)N1CCc2c(c(-c3ccc(Cl)c(C#Cc4ccc(CNCc5ccc(Cl)cc5)cc4)c3)nn2CCCN2CCC(CO)CC2)C1 [Example 337, (1-{3-[3-(4-Chloro-3-{[4-({[(4-chlorophenyl)methyl]amino}methyl)phenyl]ethynyl}phenyl)-5-(methylsulfonyl)-4,5,6,7-tetrahydro-1H-pyrazolo[4,3-c]pyridin-1-yl]propyl}piperidin-4-yl)methanol] | 70 nM
2 | – | CS(=O)(=O)N1CCc2c(c(-c3ccc(Cl)c(C#Cc4ccc(CNCc5ccc(Cl)cc5)cc4)c3)nn2CCCN2CCC(N3CCCCC3=O)CC2)C1 [Example 338, 1′-{3-[3-(4-Chloro-3-{[4-({[(4-chlorophenyl)methyl]amino}methyl)phenyl]ethynyl}phenyl)-5-(methylsulfonyl)-4,5,6,7-tetrahydro-1H-pyrazolo[4,3-c]pyridin-1-yl]propyl}-1,4′-bipiperidin-2-one] | 20 nM
3 | 230 nM | COc1ccc(CNCc2ccc(C#Cc3cc(-c4nn(CCCN5CCOCC5)c5c4CN(S(C)(=O)=O)CC5)ccc3Cl)cc2)cc1 [Example 339, 1-[4-({2-Chloro-5-[5-(methylsulfonyl)-1-(3-morpholin-4-ylpropyl)-4,5,6,7-tetrahydro-1H-pyrazolo[4,3-c]pyridin-3-yl]phenyl}ethynyl)phenyl]-N-{[4-(methyloxy)phenyl]methyl}methanamine] | –
4 | – | CS(=O)(=O)N1CCc2c(c(-c3ccc(Cl)c(C#Cc4ccc(CNCC(F)(F)F)cc4)c3)nn2CCCN2CCOCC2)C1 [Example 340, N-{[4-({2-Chloro-5-[5-(methylsulfonyl)-1-(3-morpholin-4-ylpropyl)-4,5,6,7-tetrahydro-1H-pyrazolo[4,3-c]pyridin-3-yl]phenyl}ethynyl)phenyl]methyl}-2,2,2-trifluoroethanamine] | 390 nM
5 | – | CS(=O)(=O)N1CCc2c(c(-c3ccc(Cl)c(C#Cc4ccc(CNCC5CC5)cc4)c3)nn2CCCN2CCOCC2)C1 [Example 341, 1-[4-({2-Chloro-5-[5-(methylsulfonyl)-1-(3-morpholin-4-ylpropyl)-4,5,6,7-tetrahydro-1H-pyrazolo[4,3-c]pyridin-3-yl]phenyl}ethynyl)phenyl]-N-(cyclopropylmethyl)methanamine] | 830 nM
6 | – | CS(=O)(=O)N1CCc2c(c(-c3ccc(Cl)c(C#Cc4ccc(CN[C@H](CO)c5ccccc5)cc4)c3)nn2CCCN2CCOCC2)C1 [Example 342, (2S)-2-({[4-({2-Chloro-5-[5-(methylsulfonyl)-1-(3-morpholin-4-ylpropyl)-4,5,6,7-tetrahydro-1H-pyrazolo[4,3-c]pyridin-3-yl]phenyl}ethynyl)phenyl]methyl}amino)-2-phenylethanol] | 310 nM
7 | – | CS(=O)(=O)N1CCc2c(c(-c3ccc(Cl)c(C#Cc4ccc(CNCc5ccc(Cl)cc5)cc4)c3)nn2CCCN2CCC(N3CCOCC3)CC2)C1 [Example 343, 1-{4-[(2-Chloro-5-{5-(methylsulfonyl)-1-[3-(4-morpholin-4-ylpiperidin-1-yl)propyl]-4,5,6,7-tetrahydro-1H-pyrazolo[4,3-c]pyridin-3-yl}phenyl)ethynyl]phenyl}-N-[(4-chlorophenyl)methyl]methanamine] | 40 nM
8 | – | CC1CCN(CCCn2nc(-c3ccc(Cl)c(C#Cc4ccc(CNCc5ccc(Cl)cc5)cc4)c3)c3c2CCN(S(C)(=O)=O)C3)CC1 [Example 344, 1-{4-[(2-Chloro-5-{1-[3-(4-methylpiperidin-1-yl)propyl]-5-(methylsulfonyl)-4,5,6,7-tetrahydro-1H-pyrazolo[4,3-c]pyridin-3-yl}phenyl)ethynyl]phenyl}-N-[(4-chlorophenyl)methyl]methanamine] | 60 nM
9 | – | CS(=O)(=O)N1CCc2c(c(-c3ccc(Cl)c(C#Cc4ccc(CNCc5ccc(Cl)cc5)cc4)c3)nn2CCCN2CCC(C(F)(F)F)CC2)C1 [Example 345, 1-[4-({2-Chloro-5-[5-(methylsulfonyl)-1-{3-[4-(trifluoromethyl)piperidin-1-yl]propyl}-4,5,6,7-tetrahydro-1H-pyrazolo[4,3-c]pyridin-3-yl]phenyl}ethynyl)phenyl]-N-[(4-chlorophenyl)methyl]methanamine] | 110 nM
10 | 20 nM | CC(=O)NC1CCN(CCCn2nc(-c3ccc(Cl)c(C#Cc4ccc(CNCc5ccc(Cl)cc5)cc4)c3)c3c2CCN(S(C)(=O)=O)C3)CC1 [Example 346, N-(1-{3-[3-(4-Chloro-3-{[4-({[(4-chlorophenyl)methyl]amino}methyl)phenyl]ethynyl}phenyl)-5-(methylsulfonyl)-4,5,6,7-tetrahydro-1H-pyrazolo[4,3-c]pyridin-1-yl]propyl}piperidin-4-yl)acetamide] | –
11 | – | COC(=O)CNCc1ccc(C#Cc2cc(-c3nn(CCCN4CCOCC4)c4c3CN(S(C)(=O)=O)CC4)ccc2Cl)cc1 [Example 347, Methyl N-{[4-({2-chloro-5-[5-(methylsulfonyl)-1-(3-morpholin-4-ylpropyl)-4,5,6,7-tetrahydro-1H-pyrazolo[4,3-c]pyridin-3-yl]phenyl}ethynyl)phenyl]methyl}glycinate] | 610 nM
12 | – | CS(=O)(=O)N1CCc2c(c(-c3ccc(Cl)c(C#Cc4ccc(CNCC(F)(F)F)cc4)c3)nn2CCCN2CCC(N3CCCC3=O)CC2)C1 [Example 348, 1-(1-{3-[3-{4-Chloro-3-[(4-{[(2,2,2-trifluoroethyl)amino]methyl}phenyl)ethynyl]phenyl}-5-(methylsulfonyl)-4,5,6,7-tetrahydro-1H-pyrazolo[4,3-c]pyridin-1-yl]propyl}piperidin-4-yl)pyrrolidin-2-one] | 100 nM
13 | – | C=CCNCc1ccc(C#Cc2cc(-c3nn(CCCN4CCOCC4)c4c3CN(S(C)(=O)=O)CC4)ccc2Cl)cc1 [Example 349, N-{[4-({2-Chloro-5-[5-(methylsulfonyl)-1-(3-morpholin-4-ylpropyl)-4,5,6,7-tetrahydro-1H-pyrazolo[4,3-c]pyridin-3-yl]phenyl}ethynyl)phenyl]methyl}prop-2-en-1-amine] | 550 nM
14 | 40 nM | CS(=O)(=O)N1CCc2c(c(-c3ccc(Cl)c(C#Cc4ccc(CNCc5ccc(Cl)cc5)cc4)c3)nn2CCCN2CCC(C(N)=O)CC2)C1 [Example 350, 1-{3-[3-(4-Chloro-3-{[4-({[(4-chlorophenyl)methyl]amino}methyl)phenyl]ethynyl}phenyl)-5-(methylsulfonyl)-4,5,6,7-tetrahydro-1H-pyrazolo[4,3-c]pyridin-1-yl]propyl}piperidine-4-carboxamide] | –
15 | 120 nM | COC(=O)[C@@H](NCc1ccc(C#Cc2cc(-c3nn(CCCN4CCOCC4)c4c3CN(S(C)(=O)=O)CC4)ccc2Cl)cc1)c1ccccc1 [Example 351, Methyl (2S)-({[4-({2-chloro-5-[5-(methylsulfonyl)-1-(3-morpholin-4-ylpropyl)-4,5,6,7-tetrahydro-1H-pyrazolo[4,3-c]pyridin-3-yl]phenyl}ethynyl)phenyl]methyl}amino)(phenyl)ethanoate] | –
16 | 20 nM | CS(=O)(=O)N1CCc2c(c(-c3ccc(Cl)c(C#Cc4ccc(CN[C@@H](CO)c5ccccc5)cc4)c3)nn2CCCN2CCC(N3CCCC3=O)CC2)C1 [Example 352, 1-(1-{3-[3-(4-Chloro-3-{[4-({[(1R)-2-hydroxy-1-phenylethyl]amino}methyl)phenyl]ethynyl}phenyl)-5-(methylsulfonyl)-4,5,6,7-tetrahydro-1H-pyrazolo[4,3-c]pyridin-1-yl]propyl}piperidin-4-yl)pyrrolidin-2-one] | –
17 | – | CC(=O)N1CCN(CCCn2nc(-c3ccc(Cl)c(C#Cc4ccc(CNCc5ccc(Cl)cc5)cc4)c3)c3c2CCN(S(C)(=O)=O)C3)CC1 [Example 353, 1-{4-[(5-{1-[3-(4-Acetylpiperazin-1-yl)propyl]-5-(methylsulfonyl)-4,5,6,7-tetrahydro-1H-pyrazolo[4,3-c]pyridin-3-yl}-2-chlorophenyl)ethynyl]phenyl}-N-[(4-chlorophenyl)methyl]methanamine] | 150 nM
18 | – | CN1CCN(CCCn2nc(-c3ccc(Cl)c(C#Cc4ccc(CNCc5ccc(Cl)cc5)cc4)c3)c3c2CCN(S(C)(=O)=O)C3)CC1 [Example 354, 1-{4-[(2-Chloro-5-{1-[3-(4-methylpiperazin-1-yl)propyl]-5-(methylsulfonyl)-4,5,6,7-tetrahydro-1H-pyrazolo[4,3-c]pyridin-3-yl}phenyl)ethynyl]phenyl}-N-[(4-chlorophenyl)methyl]methanamine] | 360 nM
19 | – | CC1(C)CCN(CCCn2nc(-c3ccc(Cl)c(C#Cc4ccc(CNCc5ccc(Cl)cc5)cc4)c3)c3c2CCN(S(C)(=O)=O)C3)CC1 [Example 355, 1-{4-[(2-Chloro-5-{1-[3-(4,4-dimethylpiperidin-1-yl)propyl]-5-(methylsulfonyl)-4,5,6,7-tetrahydro-1H-pyrazolo[4,3-c]pyridin-3-yl}phenyl)ethynyl]phenyl}-N-[(4-chlorophenyl)methyl]methanamine] | 110 nM
20 | 20 nM | CS(=O)(=O)N1CCc2c(c(-c3ccc(Cl)c(C#Cc4ccc(CNCc5ccc(Cl)cc5)cc4)c3)nn2CCCN2CCC(NC(=O)CO)CC2)C1 [Example 356, N-(1-{3-[3-(4-Chloro-3-{[4-({[(4-chlorophenyl)methyl]amino}methyl)phenyl]ethynyl}phenyl)-5-(methylsulfonyl)-4,5,6,7-tetrahydro-1H-pyrazolo[4,3-c]pyridin-1-yl]propyl}piperidin-4-yl)-2-hydroxyacetamide] | –
21 | – | CS(=O)(=O)N1CCc2c(c(-c3ccc(Cl)c(C#Cc4ccc(CNCc5ccc(Cl)cc5)cc4)c3)nn2CCCN2CCC(F)(F)CC2)C1 [Example 357, 1-{4-[(2-Chloro-5-{1-[3-(4,4-difluoropiperidin-1-yl)propyl]-5-(methylsulfonyl)-4,5,6,7-tetrahydro-1H-pyrazolo[4,3-c]pyridin-3-yl}phenyl)ethynyl]phenyl}-N-[(4-chlorophenyl)methyl]methanamine] | 210 nM
22 | 100 nM | CS(=O)(=O)N1CCc2c(c(-c3ccc(Cl)c(C#Cc4ccc(CNCc5ccc(Cl)cc5)cc4)c3)nn2CCCN2CCC(F)CC2)C1 [Example 358, 1-{4-[(2-Chloro-5-{1-[3-(4-fluoropiperidin-1-yl)propyl]-5-(methylsulfonyl)-4,5,6,7-tetrahydro-1H-pyrazolo[4,3-c]pyridin-3-yl}phenyl)ethynyl]phenyl}-N-[(4-chlorophenyl)methyl]methanamine] | –
